Data: US20250034183A1, “POLYMORPHIC FORMS AND METHODS OF PRODUCING POLYMORPHIC FORMS OF A COMPOUND” (Viking Therapeutics, Inc., priority 2022, published 2025)
Where “and” joins values, the source holds several entries; their conditions need not be identical. Identical values can stand only once. Entries after “also recorded” stand apart in the source; their conditions may differ. Counter-ions that a name gives are not always drawn.

Assays:
Format in all cases: physicochemical
[1] = Equilibrium aqueous solubility in water at ambient temperature
Procedure: Equilibrium solubility of Compound 1 and 1-A was measured in water at ambient temperature. A known volume of water was placed in a 1-dram glass vial and weight aliquots of Compound 1 or Compound 1-A were added while magnetically stirring at room temperature. If the solid dissolved, another aliquot of […] was added.

[2] = Kinetic solubility in simulated gastric fluid (SGF); conditions: for Concentration in SFG: SGF pH about 1.2, 37° C.; for Resulting solid after kinetic solubility in SGF (XRPD): SGF pH about 1.2; for Concentrations in SGF up until 6 hours: SGF pH about 1.2, all time points up until 6 hours
Procedure: (§1) In SGF, concentrations were below 1 μg/mL up until 6 hours. The resulting solid was form A. In water, a concentration of 0.3 mg/mL was achieved within 2 minutes and concentration after 6 hours was about 0.5 mg/mL.
(§2) In SGF, concentrations were below 1 μg/mL up until 6 hours. The resulting solid was non-crystalline by XRPD. In water, a concentration of 2.3 mg/mL was achieved within 2 minutes and concentration after 6 hours was about 3.1 mg/mL.

[3] = Kinetic solubility in water at 37° C.
Procedure: as §1, §2

[4] = Dynamic vapor sorption (DVS) hygroscopicity; conditions: for Hygroscopicity / water uptake (DVS): 25° C., 5 to 95% RH
Procedure: DVS analysis was carried out using a TA Instruments Q5000 Dynamic Vapor Sorption analyzer. The instrument was calibrated with standard weights and a sodium bromide standard for humidity. Approximately 10-25 mg of sample was loaded into a metalcoated quartz pan for analysis. The sample was analyzed at 25° C. with a maximum equilibration time of one hour in 10% relative humidity (RH) steps from 5 to 95% RH (adsorption cycle) and from 95 to 5% RH (desorption cycle). The movement from one step to the next occurred either after satisfying the equilibrium criterion of 0.01% weight change or, if the equilibrium criterion was not met, after one hour. The percent weight change values were calculated using Microsoft Excel®.

[5] = Competitive slurry (interconversion) experiments, solid form by XRPD; conditions: all competitive slurry conditions tested
Procedure: Solutions (˜2 mL) were saturated with Form A of Compound 1. Once saturated, they were centrifuged and the mother liquors were transferred to HPLC vials containing equal amounts (approximately 10 mg each) of Forms A, C, D, and E. The samples were then stirred magnetically at a specified temperature for 3 days. Solids were collected by vacuum filtration.

SMILES | Concentration at 4 hours [1] | Concentration at 24 hours [1] | Concentration at 48 hours [1] | Concentration in SFG ([2]; 2 min) | Concentration in SFG ([2]; 5 min) | Concentration in SFG ([2]; 10 min) | Concentration in SFG ([2]; 30 min) | Concentration in SFG ([2]; 60 min) | Concentration in SFG ([2]; 120 min) | Concentration in SFG ([2]; 240 min) | Concentration in SFG ([2]; 360 min) | Concentration in water ([3]; 2 min) | Concentration in water ([3]; 5 min) | Concentration in water ([3]; 10 min) | Concentration in water ([3]; 30 min) | Concentration in water ([3]; 60 min) | Concentration in water ([3]; 120 min) | Concentration in water ([3]; 240 min) | Concentrations in SGF up until 6 hours [2] | Hygroscopicity / water uptake (DVS) [4] | further results
Cc1cc(OCP(=O)(O)O)cc(C)c1Cc1ccc(O)c(Cc2ccccc2)c1 [Compound 1-A, (2-dimethylamino)ethanol (“deanol”) salt of Compound 1] | 1450 µg/mL | 1430 µg/mL | 1420 µg/mL | 0.35 µg/mL | 0.17 µg/mL | 0.11 µg/mL | 0.08 µg/mL | 0.05 µg/mL | 0.28 µg/mL | 0.21 µg/mL | 0.07 µg/mL | 2250 µg/mL | 2660 µg/mL | 2980 µg/mL | 3070 µg/mL | 3140 µg/mL | 2280 µg/mL | 2870 µg/mL |  |  | Concentration in water ([3]; 360 min (6 hours)): 3070 µg/mL
Cc1cc(OCP(=O)(O)O)cc(C)c1Cc1ccc(O)c(Cc2ccccc2)c1 [Compound 1] | 300 µg/mL | 320 µg/mL | 320 µg/mL | 0.4 µg/mL | 0.18 µg/mL | 0.11 µg/mL | 0.1 µg/mL | 0.07 µg/mL | 0.37 µg/mL | 0.15 µg/mL | 0.1 µg/mL | 300 µg/mL and 290 µg/mL | 330 µg/mL | 300 µg/mL | 290 µg/mL | 400 µg/mL | 410 µg/mL | 390 µg/mL | below 1 μg/mL |  | Resulting solid after kinetic solubility in SGF (XRPD) [2]: form A
Cc1cc(OCP(=O)(O)O)cc(C)c1Cc1ccc(O)c(Cc2ccccc2)c1 [Crystalline Form 1] |  |  |  |  |  |  |  |  |  |  |  |  |  |  |  |  |  |  | below 1 μg/mL |  | Resulting solid after kinetic solubility in SGF (XRPD) ([2]; listed as Compound 1-A (Form 1)): non-crystalline; Resulting solid after kinetic solubility in water [3]: crystalline Form 3; Concentration in water ([3]; 2 min, listed as Compound 1-A (Form 1)): 2300 µg/mL; Concentration in water ([3]; 360 min (6 hours), listed as Compound 1-A (Form 1)): about 3.1 mg/mL
Cc1cc(OCP(=O)(O)O)cc(C)c1Cc1ccc(O)c(Cc2ccccc2)c1 [Crystalline Form 2] |  |  |  |  |  |  |  |  |  |  |  |  |  |  |  |  |  |  |  |  | Hygroscopicity / water uptake (DVS) ([4]; listed as Crystal Form 2): moderately hygroscopic
Cc1cc(OCP(=O)(O)O)cc(C)c1Cc1ccc(O)c(Cc2ccccc2)c1 [Crystalline Form 3] |  |  |  |  |  |  |  |  |  |  |  |  |  |  |  |  |  |  |  | slight water uptake | 
Cc1cc(OCP(=O)(O)O)cc(C)c1Cc1ccc(O)c(Cc2ccccc2)c1 [Crystalline Form A] |  |  |  |  |  |  |  |  |  |  |  |  |  |  |  |  |  |  |  | moderately hygroscopic; also recorded: moderate water uptake | Stability over humidity [4]: stable over a wide range of humidity; Relative stability of crystal forms [5]: most stable form
